Consider 15 molecules from paper PMC9332756, “Exploration of Diazaspiro Cores as Piperazine Bioisosteres in the Development of σ2 Receptor Ligands” (International Journal of Molecular Sciences, 2022).

The target in assay [1] is T1, σ2R (Rattus norvegicus, UniProt Q5U3Y7).
T1 construct: rat liver homogenates (15 µg) were added to mixture; from tissue; host or cells: rat liver homogenate
T1 sequence (Q5U3Y7 1-176): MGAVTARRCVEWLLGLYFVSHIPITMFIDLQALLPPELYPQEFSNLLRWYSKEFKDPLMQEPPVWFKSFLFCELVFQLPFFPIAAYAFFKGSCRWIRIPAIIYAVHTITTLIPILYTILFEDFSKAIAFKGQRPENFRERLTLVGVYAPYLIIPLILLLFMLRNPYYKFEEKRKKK
Description: σ2R radioligand binding assay with [125I]RHM-4, rat liver homogenates. To be noted: three-point screening assay (10 nM, 100 nM, 1 μM).

In assay [2] the target is σ1R. To be noted: Figure 1; cited from earlier work.
Assay [3] addresses σ2R. To be noted: Figure 1; cited from earlier work.
Assay [4] deals with T1, σ2R. Description: σ2R radioligand binding assay with [125I]RHM-4, rat liver homogenates. The following applies: for Ki: rat liver homogenates, [125I]RHM-4, mean ± SEM, at least three experiments; for σ1/σ2 Ratio: ratio of Ki σ1R to Ki σ2R. The protocol:
(§1) Radioligand binding assays were conducted using [^125I]RHM-4 with rat liver homogenates for σ2R-binding properties and a σ1R assay using [^3H]-(+)-pentazocine with Guinea pig brain homogenates. Evaluation of the compounds in the in vitro radioligand binding studies was conducted using a two-step process. […] Compounds displaying ≥ 50% displacement of radioligand binding in σ1 and σ2 assays (Table 1) were chosen for full competition studies using 10 different concentrations of the displacer. A representative competition curve at σ1 and σ2 receptors is shown for compound 2t in Figure 2.
(§2) For screening, [^3H]-(+)-pentazocine (~50,000 cpm) or [^125I]RHM-4 (~200,000 cpm) was mixed with 100 nM of tested compounds. Guinea pig brain homogenates (100 µg) or rat liver homogenates (15 µg) were added to mixture and incubated at 37 °C for 90 min. The mixture was filtered by harvester and washed 3 times using cold washing buffer (10 mM Tris-HCl, 150 mM NaCl). Collected filter was mixed with 3 mL of microscintTM20 and counted 1 min/well using beta counter. […] After that, protein was added and incubated at 37 °C for 90 min. The bound form was filtered by Whatman CF/C filter which was soaked in 1% of polyethyleneimine (PEI) in DW and then filters were washed tree times with cold washing buffer. The non-specific binding was determined in the presence of 10 µM of haloperidol or cold RHM-4. Filter was collected and read by scintillation counting (MicroBeta2 ®, PerkinElmer, Beaconsfield, UK) or gamma counter (PerkinElmer, Beaconsfield, UK). The data were analyzed using PRISM 8 (GraphPad Inc., San Diego, CA, USA).

In assay [5] the target is T2, σ1R (Cavia porcellus, UniProt Q60492).
T2 construct: from tissue; host or cells: Guinea pig brain homogenate
T2 sequence (Q60492 whole entry): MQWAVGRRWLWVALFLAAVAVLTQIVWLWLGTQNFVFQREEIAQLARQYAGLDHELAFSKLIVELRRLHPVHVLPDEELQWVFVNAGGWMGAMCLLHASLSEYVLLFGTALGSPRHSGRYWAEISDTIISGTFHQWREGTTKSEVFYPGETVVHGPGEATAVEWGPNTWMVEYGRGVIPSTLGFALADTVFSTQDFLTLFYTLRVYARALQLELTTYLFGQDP
Description: σ1R radioligand binding assay with [3H]-(+)-pentazocine, Guinea pig brain homogenates. To be noted: mean ± SEM, at least three experiments. The procedure:
as §1, §2

`Cn1c(=O)n(CCCCN2CC3CCN(c4ccc(F)cc4)C3C2)c2ccccc21` (stereo not shown) [Compound 2s]: on σ2R [1], the “affinity for the σ2R (in words)” value is recorded as “low affinity”.

Regarding `COc1cc2c(cc1OC)CN(CCCCNC(=O)c1cc(I)cc(OC)c1OC)CC2` [RHM-4], the Ki on σ1R [2] is 554 nM; at σ2R [3] it was 1 nM.

As for `Cn1c(=O)n(CCCCN2CCN(c3cccc(F)c3)CC2)c2ccccc21` [Compound 7, reference compound], on σ2R [4], affinity was put at a Ki of 2 ± 0.6 nM and the “σ1/σ2 Ratio” value came to 351. The molecule also displayed a Ki at σ1R [5] of 702 ± 272 nM.

With `Cn1c(=O)n(CCCCN2CC3(C2)CN(c2ccccc2F)C3)c2ccccc21` [Compound 2n], at σ2R [4], the Ki turned out to be 41.8 ± 7.5 nM and the “σ1/σ2 Ratio” value was 0.5. This molecule gave a Ki on σ1R [5] of 20.5 ± 3.3 nM.

With `Cn1c(=O)n(CCCCN2CCN(c3ccc(F)cc3)CC2)c2ccccc21` [Compound 1, reference compound], on σ2R [4], the “σ1/σ2 Ratio” value was 279. The Ki on σ1R [5] came to 251 ± 48.1 nM.

Consider `COc1ccc(C)cc1NC(=O)OC1CC2CCCC(C1)N2CCCCCCN` (stereo not shown) [SV 119], for which the results for the Ki at σ1R [2] and on σ2R [3] were 1420 ± 439 nM and 5.19 ± 0.8 nM, respectively.

As for `Fc1ccc(-n2cc(CCCCN3CCC4(CC3)OCc3ccccc34)c3ccccc32)cc1` [Siramesine], the Ki on σ1R [2] is 17 nM; on σ2R [3], 0.12 nM.

Take `Cn1c(=O)n(CCCCN2CC3CC2CN3c2ccc(F)cc2)c2ccccc21` (stereo not shown) [Compound 2r]: on σ2R [4], the inhibition constant (Ki) stood at 10.7 ± 1.8 nM and the “σ1/σ2 Ratio” value is recorded as 66. The same molecule had a Ki on σ1R [5] of 712 ± 135 nM.

Turning to `Cn1c(=O)n(CCCCN2CC3(C2)CN(c2ccc(F)cc2)C3)c2ccccc21` [Compound 2o], the Ki at σ2R [4] came to 40 ± 3.2 nM; on σ1R [5], 45.9 ± 6.8 nM. The “σ1/σ2 Ratio” value at σ2R [4] is 1.1.

As to `Cn1c(=O)n(CCCCN2CCC3(CC2)CCN(c2ccccc2F)CC3)c2ccccc21` [Compound 2e], at σ2R [4], the Ki amounted to 24.4 ± 3.3 nM and the “σ1/σ2 Ratio” value was 27. Also, the Ki at σ1R [5] was determined as 659 ± 84.2 nM.

Regarding `COc1cccc2c1CCCC2CCCN1CCN(C2CCCCC2)CC1` (stereo not shown) [PB28, 1-cyclohexyl-4-[3-(5-methoxy-1,2,3,4-tetrahydronaphthalen-1-yl)propyl]piperazine], the figures for the Ki on σ1R [2] and on σ2R [3] were 0.38 ± 0.1 nM and 0.68 ± 0.2 nM, respectively.

In the case of `Cn1c(=O)n(CCCCN2CCCN(c3ccc(F)cc3)CC2)c2ccccc21` [Compound 2t], on σ2R [4], the Ki stood at 3.8 ± 0.9 nM and the “σ1/σ2 Ratio” value came to 67. Moreover, the Ki on σ1R [5] amounted to 255 ± 29.9 nM.

For the molecule `Cn1c(=O)n(CCCCN2CC3CCC(C2)N3c2ccc(F)cc2)c2ccccc21` [Compound 2q], the “affinity for the σ2R (in words)” value on σ2R [1] is recorded as “low affinity”.

In the case of `CCN(c1ccc(F)cc1)C1CN(CCCCn2c(=O)n(C)c3ccccc32)C1` [Compound 2u], on σ2R [4], the affinity corresponds to a Ki of 18.8 ± 1.6 nM and the “σ1/σ2 Ratio” value is given as 15. Further, on σ1R [5], the affinity corresponds to a Ki of 279 ± 30.7 nM.

For the molecule `Cn1c(=O)n(CCCCN2CC3CCCC(C2)N3c2ccc(F)cc2)c2ccccc21` [Compound 2p], the “affinity for the σ2R (in words)” value on σ2R [1] was “low affinity”.
